The values below come from patent US20250281498A1, “FUSED AMINO PYRIMIDINE COMPOUNDS FOR TREATMENT OF SYNUCLEINOPATHIES AND TDP-43 PROTEINOPATHIES” (Ovid Therapeutics Inc., priority 2024, published 2025).

The test system of experiment [1] is panel of 144 protein kinases. The experiment can be described thus: protein kinase panel (SelectScreen; Thermofisher). Format: biochemical. To be noted: panel incl. protein kinase C isoforms, OSR1, SPAK (STK39), WNK. As for the experimental part:
Aliquots of HEK-293 cells expressing KCC2 were exposed to 30 μM SSA, heated from 37-55° C. The remaining level of soluble native KCC2 at each temperature was measured by immunoblotting and normalized to the level seen at 37° C. which was given a value of 1. […] This panel included protein kinase C isoforms, OSR1, SPAK (STK39) and with-no-lysine kinases (WNK), all of which phosphorylate KCC2 on multiple residues to indirectly modify its activity (Kahle et al., 2013, supra; Smalley et al., 2020, supra).

Experiment [2] has as its target T1, KCC4 (Homo sapiens, UniProt Q9Y666).
T1 construct: expressed in transfected cells; host or cells: HEK-293
T1 sequence (Q9Y666 1-1083): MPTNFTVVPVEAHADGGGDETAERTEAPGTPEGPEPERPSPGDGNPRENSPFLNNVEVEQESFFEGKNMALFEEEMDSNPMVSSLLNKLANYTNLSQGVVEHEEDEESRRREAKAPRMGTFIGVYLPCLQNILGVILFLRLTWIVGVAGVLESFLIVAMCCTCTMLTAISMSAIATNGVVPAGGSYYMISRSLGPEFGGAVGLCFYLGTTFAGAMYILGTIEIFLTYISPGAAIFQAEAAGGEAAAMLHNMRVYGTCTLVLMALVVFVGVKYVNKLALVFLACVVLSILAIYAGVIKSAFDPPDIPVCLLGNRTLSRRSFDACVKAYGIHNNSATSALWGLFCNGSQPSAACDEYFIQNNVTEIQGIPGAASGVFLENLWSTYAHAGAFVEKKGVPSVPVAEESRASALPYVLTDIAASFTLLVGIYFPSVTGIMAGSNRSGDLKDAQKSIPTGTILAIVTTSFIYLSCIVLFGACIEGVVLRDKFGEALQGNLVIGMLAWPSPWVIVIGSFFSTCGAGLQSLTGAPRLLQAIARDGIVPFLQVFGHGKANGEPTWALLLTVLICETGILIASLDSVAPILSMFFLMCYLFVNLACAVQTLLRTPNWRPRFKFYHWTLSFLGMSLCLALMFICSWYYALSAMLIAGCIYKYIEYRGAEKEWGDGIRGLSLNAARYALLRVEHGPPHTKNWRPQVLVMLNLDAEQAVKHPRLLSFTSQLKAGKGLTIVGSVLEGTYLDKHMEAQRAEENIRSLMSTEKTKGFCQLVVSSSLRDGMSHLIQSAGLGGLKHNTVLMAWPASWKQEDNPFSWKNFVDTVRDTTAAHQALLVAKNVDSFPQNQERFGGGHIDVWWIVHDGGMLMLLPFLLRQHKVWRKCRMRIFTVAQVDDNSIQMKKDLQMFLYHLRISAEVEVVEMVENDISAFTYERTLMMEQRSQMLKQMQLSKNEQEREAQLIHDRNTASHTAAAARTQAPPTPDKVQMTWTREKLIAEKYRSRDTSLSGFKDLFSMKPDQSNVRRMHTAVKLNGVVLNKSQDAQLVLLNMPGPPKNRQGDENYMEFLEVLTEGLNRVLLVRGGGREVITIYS
The experiment can be described thus: TI+ flux assay, HEK-293 cells expressing KCC4. To be noted: read-out: concentration at which effects on KCC4 were seen (EC50 chart FIG. 1G). Format: cell-based. As for the experimental part: FLIPR TI Flux assay. HEK-293 cells were washed with HBSS, and then incubated with loading buffer containing TI sensitive fluorescent dye (https://www.moleculardevices.com), 20 μM bumetanide 20 μM ouabain and 2.5 mM probenecid for 1 h at room temperature (RT) under control conditions or with drugs in the dark using a FlexStation 3 microplate reader (Molecular Devices) and imaged […] for 30 min. Stimulus buffer was added containing 5 mM K^+/0.5 mM Tl^+ and cells were imaged every 1.5 over a 190 second time course The initial rate Tl^+ uptake (Relative Fluorescence Units (RFU) per second) was determined following addition of the stimulus buffer as outlined previously (Conway et al., 2017, supra) (Lee et al., 2022, supra).
Several studies have shown that the activity and plasma membrane accumulation of KCC2 is potentiated via phosphorylation of S940, a process mediated by the activity of protein kinase C and protein phosphatase 1 (Lee et al., 2011, supra; Lee et al., J Biol Chem 282, 29777-29784 (2007); Moore et al., Proc. Natl. Acad. Sci. U.S.A. 115, 10166-10171 (2018); Moore et al., Trends Neurosci. 40, 555-571 (2017); Silayeva et al., Proc. Natl. Acad. Sci. U.S.A. 112, 3523-3528 (2015)). […] Compared to KCC2, effects on KCC3, KCC4, and NKCC1 were only seen at concentrations more than 35-fold that of KCC2 (>100 μM) (FIG. 1G).

The subject of experiment [3] is hippocampal neurons. The experiment can be described thus: whole cell patch-clamp recording of EGABA with imposed Cl− load in hippocampal neurons. Format: cell-based, Sprague Dawley. Particulars: incubated 1 h, 32 mM Cl− load, 5 min after break-in, controls −47.4±2.3. As for the experimental part:
Neuronal Cultures. Hippocampal neurons were prepared from Sprague Dawley E18 embryos and plated at 450,000 per dish and maintained at 37° C. in a humidified 5% CO2 incubator for 10-25 days before experimentation (Lee et al., Nat. Neurosci. 14, 736-743 (2011)).
Neuronal Patch clamp assays. Neuronal cell culture recordings were performed in bath saline at 34° C. For gramicidin perforated-patch experiments, pipettes contained (in mM): 140 KCl and 10 HEPES, pH 7.4 KOH. For whole-cell experiments, pipettes contained (in mM): 115 K-meth-SO4, 30 KCl, 2 Mg-ATP, 4 Na-ATP, 0.4 Na-GTP, and 10 HEPES, pH 7.4 KOH. Bath saline contained the following (in mM): 140 NaCl, 2.5 KCl, 2.5 CaCl2, 2.5 MgCl2, 10 HEPES, and 11 glucose, pH 7.4 NaOH (Kontou et al., 2021, supra). All compound solutions were applied to cells using a three-barreled 700 μm pipe positioned just above the cell (Warner Instruments). […] All voltages from whole-cell experiments were corrected offline using a calculated liquid junction potential value (13.6 mV) in Clampex (Molecular Devices). For gramicidin perforated-patch experiments, intracellular Cl^− values were back-calculated using measured EGABA values and the Nernst equation: […]
5 min after break-in, an initial EGABA value was determined and the effects of a subsequent 5 min incubation with VU0463271 was assessed.
A general note: In patch-clamp work, channel activity is measured electrically.

Bounds are passed on as bounds.

On to `C[C@@H]1CN(c2nc3c(c(Nc4ccc(C5CCCCC5)cc4)n2)COC3)CCO1` [Compound A, (R)—N-(4-cyclohexylphenyl)-2-(2-methylmorpholino)-5,7-dihydrofuro[3,4-d]pyrimidin-4-amine], for which the “activity of a panel of 144 protein kinases” value in experiment [1] is recorded as “did not modify the activity”. Moreover, the EC50 in experiment [2] is above 100 µM. Moreover, the basal EGABA in experiment [3] was -59.3 ± 2.1 mV.
